Reference: PubChem BioAssay AID2060614 (Molecular Pharmacology Branch, DTP, NCI, 2025)

Test system: 598228-144-R-J1-PDC complex spheroids, viability
Assay: Anticancer human tumor 598228-144-R-J1-PDC patient-derived serous endometrial adenocarcinoma cell line growth inhibition [CLK]
Details: for IC50: curve of first compound; for viability, T/C: stronger effect = lower value
Method in brief: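 Patient-derived tumor cells grown as complex spheroids with HUVEC endothelial cells and mesenchymal stem cells, treated with drug combinations. Concentrations descend in half-log steps from near clinical Cmax, or from 10 microM if Cmax unknown.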

[1] = second compound 0.0316 µM, first compound 0.0316 µM
[2] = second compound 0.0316 µM, first compound 0.1 µM
[3] = second compound 0.0316 µM, first compound 0.316 µM
[4] = second compound 0.0316 µM, first compound 1 µM
[5] = second compound 0.0316 µM, first compound 3.16 µM
[6] = second compound 0.0316 µM, first compound 10 µM
[7] = second compound 0.1 µM, first compound 0.0316 µM
[8] = second compound 0.1 µM, first compound 0.1 µM
[9] = second compound 0.1 µM, first compound 0.316 µM
[10] = second compound 0.1 µM, first compound 1 µM
[11] = second compound 0.1 µM, first compound 3.16 µM
[12] = second compound 0.1 µM, first compound 10 µM
[13] = second compound 0.316 µM, first compound 0.0316 µM
[14] = second compound 0.316 µM, first compound 0.1 µM
[15] = second compound 0.316 µM, first compound 0.316 µM
[16] = second compound 0.316 µM, first compound 1 µM
[17] = second compound 0.316 µM, first compound 3.16 µM
[18] = second compound 0.316 µM, first compound 10 µM
[19] = second compound 1 µM, first compound 0.0316 µM
[20] = second compound 1 µM, first compound 0.1 µM
[21] = second compound 1 µM, first compound 0.316 µM
[22] = second compound 1 µM, first compound 1 µM
[23] = second compound 1 µM, first compound 3.16 µM
[24] = second compound 1 µM, first compound 10 µM
[25] = second compound 3.16 µM, first compound 0.0316 µM
[26] = second compound 3.16 µM, first compound 0.1 µM
[27] = second compound 3.16 µM, first compound 0.316 µM
[28] = second compound 3.16 µM, first compound 1 µM
[29] = second compound 3.16 µM, first compound 3.16 µM
[30] = second compound 3.16 µM, first compound 10 µM
[31] = second compound 10 µM, first compound 0.0316 µM
[32] = second compound 10 µM, first compound 0.1 µM
[33] = second compound 10 µM, first compound 0.316 µM
[34] = second compound 10 µM, first compound 1 µM
[35] = second compound 10 µM, first compound 3.16 µM
[36] = second compound 10 µM, first compound 10 µM
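Note: spheroids exposed to compounds for seven days before readout.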
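Throughout, for viability, T/C: 100% = DMSO vehicle control wells.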

## C=C(F)C(=O)N1CCN(c2nc(OCC3CCCN3C)nc3c2CCN(c2cccc4cccc(Cl)c24)C3)CC1CC#N (stereo not drawn) + CN1CCN(c2cc(C(=O)Nc3cc4cc(-c5cnn(C)c5)ccc4cn3)ccn2)CC1
Second compound 0.0316 µM
  IC50: 5380 nM
Second compound 0.1 µM
  IC50: 5530 nM
Second compound 0.316 µM
  IC50: < 31.6 nM
Second compound 1 µM
  IC50: < 31.6 nM
Second compound 3.16 µM
  IC50: < 31.6 nM
Second compound 10 µM
  IC50: < 31.6 nM
[1]
  viability, T/C: 120%
[2]
  viability, T/C: 116%
[3]
  viability, T/C: 123%
[4]
  viability, T/C: 122%
[5]
  viability, T/C: 91.6%
[6]
  viability, T/C: 1.53%
[7]
  viability, T/C: 131%
[8]
  viability, T/C: 123%
[9]
  viability, T/C: 116%
[10]
  viability, T/C: 135%
[11]
  viability, T/C: 95.7%
[12]
  viability, T/C: 1.5%
[13]
  viability, T/C: 17.1%
[14]
  viability, T/C: 20%
[15]
  viability, T/C: 17.4%
[16]
  viability, T/C: 18.9%
[17]
  viability, T/C: 11.9%
[18]
  viability, T/C: 0.14%
[19]
  viability, T/C: 2.31%
[20]
  viability, T/C: 2.11%
[21]
  viability, T/C: 1.77%
[22]
  viability, T/C: 1.1%
[23]
  viability, T/C: 1.88%
[24]
  viability, T/C: 0.11%
[25]
  viability, T/C: 1.76%
[26]
  viability, T/C: 3.04%
[27]
  viability, T/C: 1.61%
[28]
  viability, T/C: 2.21%
[29]
  viability, T/C: 2.11%
[30]
  viability, T/C: 0.17%
[31]
  viability, T/C: 1.18%
[32]
  viability, T/C: 1.1%
[33]
  viability, T/C: 3.38%
[34]
  viability, T/C: 0.85%
[35]
  viability, T/C: 1.73%
[36]
  viability, T/C: 3.8%

## Nc1ccccc1NC(=O)c1ccc(CNC(=O)OCc2cccnc2)cc1 + CN1CCN(c2cc(C(=O)Nc3cc4cc(-c5cnn(C)c5)ccc4cn3)ccn2)CC1
Second compound 0.0316 µM
  IC50: 1780 nM
Second compound 0.1 µM
  IC50: 2170 nM
Second compound 0.316 µM
  IC50: < 31.6 nM
Second compound 1 µM
  IC50: < 31.6 nM
Second compound 3.16 µM
  IC50: < 31.6 nM
Second compound 10 µM
  IC50: < 31.6 nM
[1]
  viability, T/C: 125%
[2]
  viability, T/C: 114%
[3]
  viability, T/C: 93.4%
[4]
  viability, T/C: 68.2%
[5]
  viability, T/C: 32.4%
[6]
  viability, T/C: 3.45%
[7]
  viability, T/C: 121%
[8]
  viability, T/C: 123%
[9]
  viability, T/C: 97.2%
[10]
  viability, T/C: 71.3%
[11]
  viability, T/C: 41%
[12]
  viability, T/C: 0.32%
[13]
  viability, T/C: 17.1%
[14]
  viability, T/C: 14.1%
[15]
  viability, T/C: 13%
[16]
  viability, T/C: 10.7%
[17]
  viability, T/C: 1.75%
[18]
  viability, T/C: 0.23%
[19]
  viability, T/C: 1.29%
[20]
  viability, T/C: 1.3%
[21]
  viability, T/C: 1.11%
[22]
  viability, T/C: 1.01%
[23]
  viability, T/C: 1.46%
[24]
  viability, T/C: 0.57%
[25]
  viability, T/C: 1.49%
[26]
  viability, T/C: 3.39%
[27]
  viability, T/C: 1.88%
[28]
  viability, T/C: 1.93%
[29]
  viability, T/C: 1.66%
[30]
  viability, T/C: 0.89%
[31]
  viability, T/C: 0.8%
[32]
  viability, T/C: 0.77%
[33]
  viability, T/C: 1.17%
[34]
  viability, T/C: 1.13%
[35]
  viability, T/C: 2.8%
[36]
  viability, T/C: 2.51%

## COc1cccc2c1C(=O)c1c(O)c3c(c(O)c1C2=O)CC(O)(C(=O)CO)CC3OC1CC(N)C(O)C(C)O1 (stereo not drawn) + CNC(=O)c1ccc(Nc2nc(OC3CCCC3)c3c(-c4ccc5nc(C)oc5c4)c[nH]c3n2)c(OC)c1
Second compound 0.0316 µM
  IC50: 247 nM
Second compound 0.1 µM
  IC50: 254 nM
Second compound 0.316 µM
  IC50: 227 nM
Second compound 1 µM
  IC50: 162 nM
Second compound 3.16 µM
  IC50: 101 nM
Second compound 10 µM
  IC50: 105 nM
[1]
  viability, T/C: 102%
[2]
  viability, T/C: 83.6%
[3]
  viability, T/C: 40.4%
[4]
  viability, T/C: 11.3%
[5]
  viability, T/C: 0.76%
[6]
  viability, T/C: 0.83%
[7]
  viability, T/C: 122%
[8]
  viability, T/C: 106%
[9]
  viability, T/C: 36.5%
[10]
  viability, T/C: 7.7%
[11]
  viability, T/C: 0.47%
[12]
  viability, T/C: 1.08%
[13]
  viability, T/C: 123%
[14]
  viability, T/C: 128%
[15]
  viability, T/C: 19.1%
[16]
  viability, T/C: 4.16%
[17]
  viability, T/C: 0.73%
[18]
  viability, T/C: 4.66%
[19]
  viability, T/C: 121%
[20]
  viability, T/C: 76.1%
[21]
  viability, T/C: 14.2%
[22]
  viability, T/C: 1.56%
[23]
  viability, T/C: 0.81%
[24]
  viability, T/C: 0.82%
[25]
  viability, T/C: 110%
[26]
  viability, T/C: 49.8%
[27]
  viability, T/C: 17.1%
[28]
  viability, T/C: 1.2%
[29]
  viability, T/C: 2.45%
[30]
  viability, T/C: 1.09%
[31]
  viability, T/C: 103%
[32]
  viability, T/C: 51.7%
[33]
  viability, T/C: 11.6%
[34]
  viability, T/C: 1.39%
[35]
  viability, T/C: 1.63%
[36]
  viability, T/C: 2.68%

## CC(CO)NC(=O)c1cc(-c2ccc(Cl)cc2)nn(-c2cnn(C)c2)c1=O (stereo not drawn) + CNC(=O)c1ccc(Nc2nc(OC3CCCC3)c3c(-c4ccc5nc(C)oc5c4)c[nH]c3n2)c(OC)c1
Second compound 0.0316 µM
  IC50: > 10000 nM
Second compound 0.1 µM
  IC50: > 10000 nM
Second compound 0.316 µM
  IC50: > 10000 nM
Second compound 1 µM
  IC50: > 10000 nM
Second compound 3.16 µM
  IC50: > 10000 nM
Second compound 10 µM
  IC50: > 10000 nM
[1]
  viability, T/C: 124%
[2]
  viability, T/C: 102%
[3]
  viability, T/C: 102%
[4]
  viability, T/C: 104%
[5]
  viability, T/C: 92.8%
[6]
  viability, T/C: 94.4%
[7]
  viability, T/C: 94.9%
[8]
  viability, T/C: 107%
[9]
  viability, T/C: 96.5%
[10]
  viability, T/C: 103%
[11]
  viability, T/C: 106%
[12]
  viability, T/C: 83.8%
[13]
  viability, T/C: 111%
[14]
  viability, T/C: 104%
[15]
  viability, T/C: 92.8%
[16]
  viability, T/C: 96.5%
[17]
  viability, T/C: 106%
[18]
  viability, T/C: 96.8%
[19]
  viability, T/C: 111%
[20]
  viability, T/C: 104%
[21]
  viability, T/C: 112%
[22]
  viability, T/C: 105%
[23]
  viability, T/C: 111%
[24]
  viability, T/C: 87.6%
[25]
  viability, T/C: 85.7%
[26]
  viability, T/C: 94.7%
[27]
  viability, T/C: 92.2%
[28]
  viability, T/C: 102%
[29]
  viability, T/C: 94.8%
[30]
  viability, T/C: 81.4%
[31]
  viability, T/C: 90.4%
[32]
  viability, T/C: 77%
[33]
  viability, T/C: 95.8%
[34]
  viability, T/C: 77.5%
[35]
  viability, T/C: 112%
[36]
  viability, T/C: 83.1%
